# According to patent US10590113B2, “6-hydroxy-4-oxo-1,4-dihydropyrimidine-5-carboxamides as APJ agonists” (priority 2016, dated 2020):
# Molecular target: T1, human APJ receptor (Homo sapiens, UniProt P35414)
# T1 construct: expressed in transfected cells; host or cells: HEK293
# T1 sequence (P35414 1-380): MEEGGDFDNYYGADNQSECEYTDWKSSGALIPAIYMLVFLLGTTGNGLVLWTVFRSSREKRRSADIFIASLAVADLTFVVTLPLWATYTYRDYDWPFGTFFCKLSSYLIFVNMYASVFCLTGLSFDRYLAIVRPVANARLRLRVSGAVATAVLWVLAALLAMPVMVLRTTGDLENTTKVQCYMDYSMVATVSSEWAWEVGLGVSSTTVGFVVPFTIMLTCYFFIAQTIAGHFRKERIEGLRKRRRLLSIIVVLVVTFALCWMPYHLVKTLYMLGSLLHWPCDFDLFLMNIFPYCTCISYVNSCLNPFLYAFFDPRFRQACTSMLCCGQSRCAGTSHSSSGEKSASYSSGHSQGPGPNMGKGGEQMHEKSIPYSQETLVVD
# Assay: Intracellular cAMP Accumulation Assay (APJ hcAMP, HTRF)
# Type: cell-based
# Conditions: human APJ, cAMP accumulation; potency range class; read-out: hAPJ cAMP EC50 Potency range
# Procedure, shortened: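 Stably transfected HEK293 cells (5,000/well) incubated 30 min at room temperature with serially diluted compound, […] and 2 μM forskolin. cAMP measured by HTRF after 60 min with detection reagents, quantified against a cAMP standard curve; EC50 from variable-slope sigmoidal fit of inhibition of forskolin-stimulated cAMP.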
row,EC50 [nM],Structure (SMILES)
1,0.01 to 10,"COc1cccc(OC)c1-n1c(-c2csc(C)n2)nc(=O)c(C(=O)N2CCC(Oc3cccc(F)c3F)CC2)c1O [Example 277, 5-[4-(2,3-difluorophenoxy)piperidine-1-carbonyl]-1-(2,6-dimethoxyphenyl)-6-hydroxy-2-(2-methyl-1,3-thiazol-4-yl)-1,4-dihydropyrimidin-4-one]"
2,0.01 to 10,"CCc1cccc(CC)c1-n1c(-c2ccn(C)n2)nc(=O)c(C(=O)N2CC[C@H](c3ccccc3)C2)c1O [Example 283, 1-(2,6-diethylphenyl)-6-hydroxy-2-(1-methyl-1H-pyrazol-3-yl)-5-[(3R)-3-phenylpyrrolidine-1-carbonyl]-1,4-dihydropyrimidin-4-one]"
3,0.01 to 10,"CCn1ccc(-c2nc(=O)c(C(=O)N3CC[C@H](c4ccccc4)C3)c(O)n2-c2c(OC)cccc2OC)n1 [Example 284, 1-(2,6-dimethoxyphenyl)-2-(1-ethyl-1H-pyrazol-3-yl)-6-hydroxy-5-[(3R)-3-phenylpyrrolidine-1-carbonyl]-1,4-dihydropyrimidin-4-one]"
4,0.01 to 10,"CCc1cccc(CC)c1-n1c(-c2ccn(C)n2)nc(=O)c(C(=O)N2CC[C@@H](c3ccccc3)C2)c1O [Example 285, 1-(2,6-diethylphenyl)-6-hydroxy-2-(1-methyl-1H-pyrazol-3-yl)-5-[(3S)-3-phenylpyrrolidine-1-carbonyl]-1,4-dihydropyrimidin-4-one]"
5,0.01 to 10,"CCn1ccc(-c2nc(=O)c(C(=O)N3CC[C@@H](c4ccccc4)C3)c(O)n2-c2c(OC)cccc2OC)n1 [Example 286, 1-(2,6-dimethoxyphenyl)-2-(1-ethyl-1H-pyrazol-3-yl)-6-hydroxy-5-[(3S)-3-phenylpyrrolidine-1-carbonyl]-1,4-dihydropyrimidin-4-one]"
6,0.01 to 10,"CCn1ccc(-c2nc(=O)c(C(=O)N3CC[C@@H](c4ccccc4)C3)c(O)n2-c2cccc(C(C)C)c2)n1 [Example 288, 2-(1-ethyl-1H-pyrazol-3-yl)-6-hydroxy-5-[(3S)-3-phenylpyrrolidine-1-carbonyl]-1-[3-(propan-2-yl)phenyl]-1,4-dihydropyrimidin-4-one]"
7,0.01 to 10,"CCc1cccc(CC)c1-n1c(-c2ccn(C(C)C)n2)nc(=O)c(C(=O)N2CC[C@@H](c3ccccc3)C2)c1O [Example 289, 1-(2,6-diethylphenyl)-6-hydroxy-5-[(3S)-3-phenylpyrrolidine-1-carbonyl]-2-[1-(propan-2-yl)-1H-pyrazol-3-yl]-1,4-dihydropyrimidin-4-one]"
8,0.01 to 10,"CCn1ccc(-c2nc(=O)c(C(=O)N3CC[C@H](c4ccccc4)C3)c(O)n2-c2cccc(C(C)C)c2)n1 [Example 291, 2-(1-ethyl-1H-pyrazol-3-yl)-6-hydroxy-5-[(3R)-3-phenylpyrrolidine-1-carbonyl]-1-[3-(propan-2-yl)phenyl]-1,4-dihydropyrimidin-4-one]"
9,0.01 to 10,"CCc1cccc(CC)c1-n1c(-c2csc(C(C)C)n2)nc(=O)c(C(=O)N2CC[C@@H](c3ccccc3)C2)c1O [Example 299, 1-(2,6-diethylphenyl)-6-hydroxy-5-[(3S)-3-phenylpyrrolidine-1-carbonyl]-2-[2-(propan-2-yl)-1,3-thiazol-4-yl]-1,4-dihydropyrimidin-4-one]"
10,0.01 to 10,"CCc1cccc(CC)c1-n1c(-c2csc(C)n2)nc(=O)c(C(=O)N2CC[C@H](c3ccccc3)C2)c1O [Example 301, 1-(2,6-diethylphenyl)-6-hydroxy-2-(2-methyl-1,3-thiazol-4-yl)-5-[(3R)-3-phenylpyrrolidine-1-carbonyl]-1,4-dihydropyrimidin-4-one]"
11,0.01 to 10,"CCc1cccc(CC)c1-n1c(-c2csc(C)n2)nc(=O)c(C(=O)N2CC[C@@H](c3ccccc3)C2)c1O [Example 303, 1-(2,6-diethylphenyl)-6-hydroxy-2-(2-methyl-1,3-thiazol-4-yl)-5-[(3S)-3-phenylpyrrolidine-1-carbonyl]-1,4-dihydropyrimidin-4-one]"
12,0.01 to 10,"CC[C@@H](c1ccccc1)n1c(-c2ccc(F)c(C)c2)nc(=O)c(C(=O)N2CC[C@H](c3ccccc3)C2)c1O [Example 314, 2-(4-fluoro-3-methylphenyl)-6-hydroxy-1-[(1S)-1-phenylpropyl]-5-[(3R)-3-phenylpyrrolidine-1-carbonyl]-1,4-dihydropyrimidin-4-one]"
13,0.01 to 10,"CCc1cccc(CC)c1-n1c(-c2ccn(C3CC3)n2)nc(=O)c(C(=O)N2CC[C@@H](c3ccccc3)C2)c1O [Example 316, 2-(1-cyclopropyl-1H-pyrazol-3-yl)-1-(2,6-diethylphenyl)-6-hydroxy-5-[(3S)-3-phenylpyrrolidine-1-carbonyl]-1,4-dihydropyrimidin-4-one]"
14,10 to 100,"CCc1cccc(CC)c1-n1c(-c2ccn(CC(C)C)n2)nc(=O)c(C(=O)N2CC[C@@H](c3ccccc3)C2)c1O [Example 317, 1-(2,6-diethylphenyl)-6-hydroxy-2-[1-(2-methylpropyl)-1H-pyrazol-3-yl]-5-[(3S)-3-phenylpyrrolidine-1-carbonyl]-1,4-dihydropyrimidin-4-one]"

# The remaining lines, values behind:
row,Structure (SMILES),EC50 [nM]
1,"CCc1cccc(CC)c1-n1c(COC(C)C)nc(O)c(C(=O)N2CCC(c3ccc(Cl)nc3)CC2)c1=O [Example 222, 5-[4-(6-chloropyridin-3-yl)piperidine-1-carbonyl]-3-(2,6-diethylphenyl)-6-hydroxy-2-[(propan-2-yloxy)methyl]-3,4-dihydropyrimidin-4-one]",100 to 300
2,"COc1cccc(OC)c1-n1c(CC2CC2)nc(=O)c(C(=O)N2CCC(c3ccc(Cl)nc3)CC2)c1O [Example 227, 5-[4-(6-chloropyridin-3-yl)piperidine-1-carbonyl]-2-(cyclopropylmethyl)-1-(2,6-dimethoxyphenyl)-6-hydroxy-1,4-dihydropyrimidin-4-one]",10 to 100

# Same assay, conditions: human APJ, intracellular cAMP accumulation; read-out: hAPJ cAMP EC50 Potency range
row,EC50 [nM],Structure (SMILES)
1,10 to 100,"CCCCc1nc(=O)c(C(=O)N2CC[C@H](c3ccccc3)C2)c(O)n1C(C)C [Example 150, 2-butyl-6-hydroxy-5-[(3R)-3-phenylpyrrolidine-1-carbonyl]-3-(propan-2-yl)-3,4-dihydropyrimidin-4-one]"
2,10 to 100,"CCCCc1nc(=O)c(C(=O)N2CC[C@@H](c3ccccc3)C2)c(O)n1[C@@H](C)c1ccccc1OC [Example 151, 2-butyl-6-hydroxy-3-[(1S)-1-(2-methoxypheny)ethyl]-5-[(3S)-3-phenylpyrrolidine-1-carbonyl]-3,4-dihydropyrimidin-4-one]"
3,10 to 100,"CCCCc1nc(=O)c(C(=O)N2CC[C@H](c3ccccc3)C2)c(O)n1[C@H](COC)c1ccccc1 [Example 152, 2-butyl-6-hydroxy-3-[(1S)-2-methoxy-1-phenylethyl]-5-[(3R)-3-phenylpyrrolidine-1-carbonyl]-3,4-dihydropyrimidin-4-one]"
4,10 to 100,"CCCCc1nc(=O)c(C(=O)N2CC[C@@H](c3ccccc3)C2)c(O)n1[C@@H](CCC)c1ccccc1 [Example 153, 2-butyl-6-hydroxy-3-[(1S)-1-phenylbutyl]-5-[(3S)-3-phenylpyrrolidine-1-carbonyl]-3,4-dihydropyrimidin-4-one]"
5,10 to 100,"CCCCc1nc(=O)c(C(=O)N2CC[C@@H](c3ccccc3)C2)c(O)n1[C@H](COC)c1ccccc1 [Example 154, 2-butyl-6-hydroxy-3-[(1S)-2-methoxy-1-phenylethyl]-5-[(3S)-3-phenylpyrrolidine-1-carbonyl]-3,4-dihydropyrimidin-4-one]"
6,100 to 300,"CCCCc1nc(=O)c(C(=O)N2CC[C@@H](c3ccccc3)C2)c(O)n1[C@H](C)C1CC1 [Example 155, 2-butyl-3-[(1R)-1-cyclopropylethyl]-6-hydroxy-5-[(3S)-3-phenylpyrrolidine-1-carbonyl]-3,4-dihydropyrimidin-4-one]"
7,100 to 300,"CCCCc1nc(=O)c(C(=O)N2CC[C@H](c3ccccc3)C2)c(O)n1[C@@H](C)c1ccccc1OC [Example 156, 2-butyl-6-hydroxy-3-[(1S)-1-(2-methoxyphenyl)ethyl]-5-[(3R)-3-phenylpyrrolidine-1-carbonyl]-3,4-dihydropyrimidin-4-one]"
8,100 to 300,"CCCCc1nc(=O)c(C(=O)N2CC[C@H](c3ccccc3)C2)c(O)n1[C@@H](C)c1ccc(F)cc1 [Example 157, 2-butyl-3-[(1S)-1-(4-fluorophenyl)ethyl]-6-hydroxy-5-[(3R)-3-phenylpyrrolidine-1-carbonyl]-3,4-dihydropyrimidin-4-one]"
9,100 to 300,"CCCCc1nc(=O)c(C(=O)N2CC[C@@H](c3ccccc3)C2)c(O)n1C(C)C [Example 159, 2-butyl-6-hydroxy-5-[(3S)-3-phenylpyrrolidine-1-carbonyl]-3-(propan-2-yl)-3,4-dihydropyrimidin-4-one]"
10,0.01 to 10,"COc1cccc(OC)c1-n1c(CCC2CC2)nc(=O)c(C(=O)N2CC=C(c3ccc(Cl)cn3)C2)c1O [Example 172, 5-[3-(5-chloropyridin-2-yl)-2,5-dihydro-1H-pyrrole-1-carbonyl]-2-(2-cyclopropylethyl)-1-(2,6-dimethoxyphenyl)-6-hydroxy-1,4-dihydropyrimidin-4-one]"
11,0.01 to 10,"COc1cccc(OC)c1-n1c(CCC2CC2)nc(=O)c(C(=O)N2CCN(Cc3cccc(F)c3F)CC2)c1O [Example 173, 2-(2-cyclopropylethyl)-5-{4-[(2,3-difluorophenyl)methyl]piperazine-1-carbonyl}-1-(2,6-dimethoxyphenyl)-6-hydroxy-1,4-dihydropyrimidin-4-one]"
